Assay results as given in US20090131520A1, “Lipid metabolism Improving Composition” (priority 2005, published 2009).

What was measured:
apolipoprotein B (B100) = assay: Secretion of apolipoprotein B (B100) from HepG2 cells into the test medium, ELISA; assay type: cell-based, human; conditions: 150 μM, 24 hr culture, FIG. 1
Experimental: (§1) A test medium containing 150 μM of linolic acid menthol ester (1% BSA-DMEM) was provided. In this test medium, human liver-derived HepG2 cells were cultured for 24 hr, and the cells and the medium were collected.
(§2) Evaluation 2: Test on Secretion (Inhibition/Enhancement) of Apolipoproteins A and B
(§3) The amount of apolipoprotein A (A1) and apolipoprotein B (B100) secreted from the human liver-derived HepG2 cells into the test medium was measured by the ELISA method.

apolipoprotein A (A1) = assay: Secretion of apolipoprotein A (A1) from HepG2 cells into the test medium, ELISA; assay type: cell-based, human; conditions: 150 μM, 24 hr culture, FIG. 2
Experimental: as §1, §2, §3

CCCCC/C=C\C/C=C\CCCCCCCC(=O)OC1CC(C)CCC1C(C)C (centres unmarked) [linolic acid menthol ester]
amount of apolipoprotein B (B100) secreted (apolipoprotein B (B100)): inhibit the secretion of apolipoprotein B (B100) | amount of apolipoprotein A (A1) secreted (apolipoprotein A (A1)): significantly enhance the secretion of apolipoprotein A (A1)
